Measured values: US20230339949A1, “HETEROCYCLIC SUBSTITUTED FUSED y-CARBOLINE DERIVATIVE, PREPARATION METHOD THEREFOR, INTERMEDIATE THEREOF AND USE THEREOF” (SHUJING BIOPHARMA CO., LTD, priority 2020, published 2023)

System: DOI-induced head-shaking behavior
Assay: DOI-induced head-shaking behavior in mice
Format: in vivo, ICR mice
Settings: Mus musculus; male ICR mice, single gavage dose 1 h before DOI 1 mg/kg i.p., head-shakes counted 0-20 min; read-out: ED50 (half effective dose)
Procedure: The efficacy of the compounds of the present disclosure was evaluated by the mice model of head-shaking behavior induced by intraperitoneal injection of (±) DOI (a hallucinogenic agent usually used to replicate anti-schizophrenic animal model).
Experimental animals: ICR mice, male, 8 mice/group, Spelford (Beijing) Biotechnology Co., Ltd.
Preparation of drug: the test compounds were taken, and solvent was added, and ultrasonication was performed.
Administration route and method: oral gavage administration, 10 mL/kg (body weight).
Administration frequency and duration: single dose.
Animals were stratified by body weight and then randomly divided into blank group, model group, and administration groups, and detailed information of administration is shown in the following table.
Mice were stratified according to body weight and then randomly divided into model group, blank group and each administration group. One hour after the animals were gavage administration of the solvent or drugs, they were placed in a beaker (13 cm in diameter, 19 cm in height) with fresh padding, and the model drug DOI was injected intraperitoneally at a dose of 1 mg/kg. The times of head-shaking were recorded within 0-20 minutes after DOI was injected intraperitoneally.
Head-shaking behavior is defined as rapid rotational twitch of mouse's head or wet dog-like shaking, which should be different from normal hair grooming or inquiry behavior.
The experimental data were expressed as x±SD, and SPSS statistical software was used to test the homogeneity of variance. If the variance was homogeneous, single factor analysis of variance was performed, and Dunnett t test is used for pairwise comparison. The ED50 was calculated by nonlinear fitting with GraphPad Primis5 software.

**Q.** Which ED50 does the source give for CN1C(=O)CN2c3c1cccc3[C@]1(C)CN(CCCC(=O)c3ccc(F)cc3)CC[C@H]21 [Embodiment 1-A, (6bR,10aS)-8-(4-(4-fluorophenyl)-4-oxobutyl)-3,6b-dimethyl-6b,7,8,9,10,10a-hexahydro-1H-pyrido[3′,4′:4,5]pyrrolo [1,2,3-de]quinoxalin-2(3H)-one] here?
**A.** Its ED50 is 0.024 mg/kg.
